Experimental data as given in patent publication US20030036514A1, “Compositions and methods for the diagnosis and treatment of psychogenic erectile dysfunction” (priority 2001, published 2003).
Read-outs that look alike come from different tables or passages of the source. dPhe(Cl) = D-phenylalanine carrying a chlorine on the ring; Nle = CCCC[C@H](N)C(=O)O

Legend:
human male = type: in vivo
Protocol: The peptides described herein were prepared by sterile methods to a final concentration of 10 mg of peptide per ml of physiological salina. In addition to a full dose providing 10 mg of the peptide to the individual, doses of 0.1 to 0.3 ml (providing 1 mg to 3 mg of the peptide to each individual) of this stock material were also injected into volunteers, with a dose of 0.1 to 0.2 ml being the most often used dosage.
A dose of 3.75 mg given to volunteers produced a long lasting erection of 4 to 6 hour duration. […] In some, this discomfort was considerable. […] Accordingly, although dosages of from about 1.0 mg to about 10.0 mg show the desired activity according to the present invention, it is preferred that the lower ranges of dosage which bring about the desired erection without undesirable side effects be used. Accordingly, it is preferred that dosages of about 1.5 mg to 2.5 mg of peptide be provided when the route of administration is subcutaneous or intramuscular. With other routes of administration, this range may require adjustment, however, it is still preferred that the lower range of adjusted effective dosages for the selected route of administration be used.
Another of the peptides according to the present invention (Ac-Nle-Asp-His-D-Phe-Cl-Arg-Trp-Lys-Gly-NH2) induced an erection within 60 minutes following administration at a concentration of 2.5 mg. This erection lasted, intermittently, for up to six hours.

patients = conditions: injection, alone or combined with pheniolamine; cited from earlier work
castrated dog = experiment: Erectile response after injection into the castrated dog; type: in vivo

Question: Which results are given for “Ac-Nle-Asp-His-D-Phe-Cl-Arg-Trp-Lys-Gly-NH2 ({Ac-Nle-Asp-H2N-dPhe(Cl)}-RWKG-NH2)”?
Answer: time to erection following administration (human male; 1.25 mg, compared with 2.5 mg, human): took longer to initially occur; duration of erection (sustained intermittently) (human male; 1.25 mg, human): up to 6 hours; time to erection following administration (human male; 2.5 mg, human): ≤ 60 min

Question: For “Ac-Ser-Tyr-Ser-Nle-Glu-His-D-Phe-Cl-Arg-Trp-Gly-Lys-Pro-Val-NH2 [reference compound]”, which erectile response (human male; highest dose administered (about 20 mg), human) is on record?
Answer: Its erectile response is “did not cause an erectile response”.

Question: For COc1ccc(Cc2nccc3cc(OC)c(OC)cc23)cc1OC [papaverine], which “patients in whom an erection is induced” value (patients) is on record?
Answer: The value was “about 70%”.

Question: For “Ac-Nle-Asp-His-D-Phe-Cl-Arg-Trp-Lys-NH2 [Example II]”, which erectile activity (human male; 1.25 mg (smallest dose) subcutaneously, human volunteers) is on record?
Answer: Its erectile activity is “generally no erectile activity was noted”.

Question: What about the stomach discomfort (human male; human, in vivo) of the same compound?
Answer: The stomach discomfort was “stomach discomfort was noted”.

Question: And the erectile response (castrated dog; castrated dog first primed with testosterone)?
Answer: The erectile response was “did so”.

Question: What about the erectile response (castrated dog; castrated dog, not primed) of the same compound?
Answer: Its erectile response is “caused no erectile response”.
